Reference: ChEMBL document CHEMBL6127079, “Design and synthesis of spiro[pyrrolidine-3,3'-quinoline]-2,2'-dione derivatives as novel antifungal agents targeting chitin synthase” (Eur J Med Chem, 2024)
In brackets after ≈: the same amount, converted by molar mass.

Key:
Cryptococcus neoformans [1] = assay: Antifungal activity against Cryptococcus neoformans ATCC 32719 incubated for 24 hrs by half broth dilution based checkerboard method; format: functional
Aspergillus fumigatus [2] = assay: Antifungal activity against Aspergillus fumigatus GIMCC 3.19 assessed as Polyoxin B MIC incubated for 24 hrs in presence of fluconazole by half broth dilution based checkerboard method; format: functional
Aspergillus flavus [3] = assay: Antifungal activity against Aspergillus flavus ATCC 16870 assessed as fluconazole MIC incubated for 24 hrs in presence of fluconazole by half broth dilution based checkerboard method; format: functional
Candida albicans [4] = assay: Antifungal activity against Candida albicans ATCC 76615 assessed as inhibition of growth incubated for 24 hrs by two-fold serial dilution method; format: functional
Candida albicans [5] = assay: Antifungal activity against Candida albicans ATCC 76615 incubated for 24 hrs by half broth dilution based checkerboard method; format: functional
Cryptococcus neoformans [6] = assay: Synergistic antifungal activity against Cryptococcus neoformans ATCC 32719 assessed as fractional inhibitory concentration index in presence of Polyoxin B incubated for 24 hrs by half broth dilution based checkerboard method; format: functional
Candida albicans [7] = assay: Antifungal activity against micafungin-resistant Candida albicans ATCC 76615 assessed as inhibition of fungal growth incubated for 24 to 72 hrs; format: functional; conditions: time 24-72 hrs
Aspergillus fumigatus [8] = assay: Synergistic antifungal activity against Aspergillus fumigatus GIMCC 3.19 assessed as fractional inhibitory concentration index in presence of Polyoxin B incubated for 24 hrs by half broth dilution based checkerboard method; format: functional
Cryptococcus neoformans [9] = assay: Antifungal activity against Cryptococcus neoformans ATCC 32719 assessed as Polyoxin B MIC incubated for 24 hrs in presence of fluconazole by half broth dilution based checkerboard method; format: functional
Aspergillus flavus [10] = assay: Synergistic antifungal activity against Aspergillus flavus ATCC 16870 assessed as fractional inhibitory concentration index in presence of Polyoxin B incubated for 24 hrs by half broth dilution based checkerboard method; format: functional
Aspergillus flavus [11] = assay: Antifungal activity against Aspergillus flavus ATCC 16870 incubated for 24 hrs by half broth dilution based checkerboard method; format: functional
Aspergillus flavus [12] = assay: Antifungal activity against drug-resistant Aspergillus flavus ATCC 16870 assessed as inhibition of cell wall synthesis in presence of sorbitol incubated for 24 hrs; format: functional
Aspergillus fumigatus [13] = assay: Antifungal activity against fluconazole-resistant Aspergillus fumigatus GIMCC 3.19 assessed as inhibition of fungal growth incubated for 24 to 72 hrs; format: functional; conditions: time 24-72 hrs
Candida albicans [14] = assay: Antifungal activity against Candida albicans ATCC 76615 assessed as fluconazole MIC incubated for 24 hrs in presence of fluconazole by half broth dilution based checkerboard method; format: functional
[15] = Inhibition of chitin synthase extracted from Candida tropicalis ATCC 750 using UDP-GlcNAc as substrate assessed as inhibition rate by TMB based microplate analyzer relative to control
Candida tropicalis = assay: Inhibition of chitin synthase extracted from Candida tropicalis ATCC 750 using UDP-GlcNAc as substrate assessed as inhibition rate at 300 ug/ml by TMB based microplate analyzer relative to control; conditions: dose 300.0 µg/ml
Cryptococcus neoformans [16] = assay: Antifungal activity against Cryptococcus neoformans ATCC 32719 assessed as fluconazole MIC incubated for 24 hrs in presence of fluconazole by half broth dilution based checkerboard method; format: functional
Cryptococcus neoformans [17] = assay: Synergistic antifungal activity against Cryptococcus neoformans ATCC 32719 assessed as fractional inhibitory concentration index in presence of fluconazole incubated for 24 hrs by half broth dilution based checkerboard method; format: functional
Aspergillus flavus [18] = assay: Antifungal activity against Aspergillus flavus ATCC 16870 assessed as Polyoxin B MIC incubated for 24 hrs in presence of fluconazole by half broth dilution based checkerboard method; format: functional
Aspergillus fumigatus [19] = assay: Antifungal activity against Aspergillus fumigatus GIMCC 3.19 assessed as fluconazole MIC incubated for 24 hrs in presence of fluconazole by half broth dilution based checkerboard method; format: functional
Cryptococcus neoformans [20] = assay: Antifungal activity against Cryptococcus neoformans ATCC 32719 assessed as inhibition of growth incubated for 24 hrs by two-fold serial dilution method; format: functional
Candida albicans [21] = assay: Synergistic antifungal activity against Candida albicans ATCC 76615 assessed as fractional inhibitory concentration index in presence of Polyoxin B incubated for 24 hrs by half broth dilution based checkerboard method; format: functional
Aspergillus flavus [22] = assay: Synergistic antifungal activity against Aspergillus flavus ATCC 16870 assessed as fractional inhibitory concentration index in presence of fluconazole incubated for 24 hrs by half broth dilution based checkerboard method; format: functional
Cryptococcus neoformans [23] = assay: Antifungal activity against fluconazole-resistant Cryptococcus neoformans ATCC 32719 assessed as inhibition of fungal growth incubated for 24 to 72 hrs; format: functional; conditions: time 24-72 hrs
Candida albicans [24] = assay: Antifungal activity against fluconazole-resistant Candida albicans ATCC 76615 assessed as inhibition of fungal growth incubated for 24 to 72 hrs; format: functional; conditions: time 24-72 hrs
Aspergillus fumigatus [25] = assay: Antifungal activity against Aspergillus fumigatus GIMCC 3.19 assessed as inhibition of growth incubated for 24 hrs by two-fold serial dilution method; format: functional
Aspergillus fumigatus [26] = assay: Synergistic antifungal activity against Aspergillus fumigatus GIMCC 3.19 assessed as fractional inhibitory concentration index in presence of fluconazole incubated for 24 hrs by half broth dilution based checkerboard method; format: functional
Aspergillus flavus [27] = assay: Antifungal activity against Aspergillus flavus ATCC 16870 assessed as inhibition of growth incubated for 24 hrs by two-fold serial dilution method; format: functional
Aspergillus fumigatus [28] = assay: Antifungal activity against Aspergillus fumigatus GIMCC 3.19 incubated for 24 hrs by half broth dilution based checkerboard method; format: functional
Candida albicans [29] = assay: Antifungal activity against Candida albicans ATCC 76615 assessed as Polyoxin B MIC incubated for 24 hrs in presence of fluconazole by half broth dilution based checkerboard method; format: functional
Candida albicans [30] = assay: Antifungal activity against drug-resistant Candida albicans ATCC 76615 assessed as inhibition of cell wall synthesis in presence of sorbitol incubated for 24 hrs; format: functional
Aspergillus flavus [31] = assay: Antifungal activity against fluconazole-resistant Aspergillus flavus ATCC 16870 assessed as inhibition of fungal growth incubated for 24 to 72 hrs; format: functional; conditions: time 24-72 hrs
Cryptococcus neoformans [32] = assay: Antifungal activity against drug-resistant Cryptococcus neoformans ATCC 32719 assessed as inhibition of cell wall synthesis in presence of sorbitol incubated for 24 hrs; format: functional
Aspergillus fumigatus [33] = assay: Antifungal activity against drug-resistant Aspergillus fumigatus GIMCC 3.19 assessed as inhibition of cell wall synthesis in presence of sorbitol incubated for 24 hrs; format: functional
Candida albicans [34] = assay: Synergistic antifungal activity against Candida albicans ATCC 76615 assessed as fractional inhibitory concentration index in presence of fluconazole incubated for 24 hrs by half broth dilution based checkerboard method; format: functional

O=C(CN1CCC(C(=O)Nc2cccc(Br)c2)CC1)Nc1ccc2c(c1)NC(=O)C1(CCNC1=O)C2 (racemic)
MIC (Cryptococcus neoformans [1]): 8 µg/mL | MIC (Aspergillus fumigatus [2]): 32 µg/mL | MIC (Aspergillus flavus [3]): 1.25 µg/mL | MIC (Candida albicans [4]): 16 µg/mL (≈ 28.9 µM) | MIC (Candida albicans [5]): 16 µg/mL | fractional inhibitory concentration index (FICI) (Cryptococcus neoformans [6]): 1 | MIC (Candida albicans [7]): 64 µg/mL (≈ 115 µM) | fractional inhibitory concentration index (FICI) (Aspergillus fumigatus [8]): 0.75 | MIC (Cryptococcus neoformans [9]): 8 µg/mL | fractional inhibitory concentration index (FICI) (Aspergillus flavus [10]): 1.25 | MIC (Aspergillus flavus [11]): 32 µg/mL | MIC (Aspergillus flavus [12]): 256 µg/mL | MIC (Aspergillus fumigatus [13]): 64 µg/mL (≈ 115 µM) | MIC (Candida albicans [14]): 1 µg/mL | IC50 [15]: 101 µM | inhibition (Candida tropicalis): 80.6% | MIC (Cryptococcus neoformans [16]): 0.75 µg/mL | fractional inhibitory concentration index (FICI) (Cryptococcus neoformans [17]): 1.5 | MIC (Aspergillus flavus [18]): 32 µg/mL | MIC (Aspergillus fumigatus [19]): 1 µg/mL | MIC (Cryptococcus neoformans [20]): 8 µg/mL (≈ 14.4 µM) | fractional inhibitory concentration index (FICI) (Candida albicans [21]): 1.5 | fractional inhibitory concentration index (FICI) (Aspergillus flavus [22]): 0.625 | MIC (Cryptococcus neoformans [23]): 32 µg/mL (≈ 57.7 µM) | MIC (Candida albicans [24]): 32 µg/mL (≈ 57.7 µM) | MIC (Aspergillus fumigatus [25]): 32 µg/mL (≈ 57.7 µM) | fractional inhibitory concentration index (FICI) (Aspergillus fumigatus [26]): 0.75 | MIC (Aspergillus flavus [27]): 32 µg/mL (≈ 57.7 µM) | MIC (Aspergillus fumigatus [28]): 32 µg/mL | MIC (Candida albicans [29]): 16 µg/mL | MIC (Candida albicans [30]): 128 µg/mL | MIC (Aspergillus flavus [31]): 32 µg/mL (≈ 57.7 µM) | MIC (Cryptococcus neoformans [32]): 256 µg/mL | MIC (Aspergillus fumigatus [33]): 256 µg/mL | fractional inhibitory concentration index (FICI) (Candida albicans [34]): 1.25

O=C(/C=C/C(=O)Nc1cccc2ccccc12)Nc1ccc2c(c1)NC(=O)C1(CCNC1=O)C2 (racemic)
MIC (Cryptococcus neoformans [1]): 2 µg/mL | MIC (Aspergillus fumigatus [2]): 2 µg/mL | MIC (Aspergillus flavus [3]): 2 µg/mL | MIC (Candida albicans [4]): 16 µg/mL (≈ 35.2 µM) | MIC (Candida albicans [5]): 4 µg/mL | fractional inhibitory concentration index (FICI) (Cryptococcus neoformans [6]): 0.5 | MIC (Candida albicans [7]): 32 µg/mL (≈ 70.4 µM) | fractional inhibitory concentration index (FICI) (Aspergillus fumigatus [8]): 1 | MIC (Cryptococcus neoformans [9]): 2 µg/mL | fractional inhibitory concentration index (FICI) (Aspergillus flavus [10]): 0.75 | MIC (Aspergillus flavus [11]): 2 µg/mL | MIC (Aspergillus flavus [12]): 64 µg/mL | MIC (Aspergillus fumigatus [13]): 64 µg/mL (≈ 141 µM) | MIC (Candida albicans [14]): 8 µg/mL | IC50 [15]: 131 µM | inhibition (Candida tropicalis): 79.5% | MIC (Cryptococcus neoformans [16]): 2 µg/mL | fractional inhibitory concentration index (FICI) (Cryptococcus neoformans [17]): 0.5 | MIC (Aspergillus flavus [18]): 2 µg/mL | MIC (Aspergillus fumigatus [19]): 2 µg/mL | MIC (Cryptococcus neoformans [20]): 8 µg/mL (≈ 17.6 µM) | fractional inhibitory concentration index (FICI) (Candida albicans [21]): 1.25 | fractional inhibitory concentration index (FICI) (Aspergillus flavus [22]): 0.75 | MIC (Cryptococcus neoformans [23]): 32 µg/mL (≈ 70.4 µM) | MIC (Candida albicans [24]): 32 µg/mL (≈ 70.4 µM) | MIC (Aspergillus fumigatus [25]): 8 µg/mL (≈ 17.6 µM) | fractional inhibitory concentration index (FICI) (Aspergillus fumigatus [26]): 1 | MIC (Aspergillus flavus [27]): 8 µg/mL (≈ 17.6 µM) | MIC (Aspergillus fumigatus [28]): 2 µg/mL | MIC (Candida albicans [29]): 8 µg/mL | MIC (Candida albicans [30]): 256 µg/mL | MIC (Aspergillus flavus [31]): 32 µg/mL (≈ 70.4 µM) | MIC (Cryptococcus neoformans [32]): 128 µg/mL | MIC (Aspergillus fumigatus [33]): 128 µg/mL | fractional inhibitory concentration index (FICI) (Candida albicans [34]): 1.125

Cc1ccc(NC(=O)/C=C/C(=O)Nc2ccc3c(c2)NC(=O)C2(CCNC2=O)C3)cc1 (racemic)
MIC (Cryptococcus neoformans [1]): 16 µg/mL | MIC (Aspergillus fumigatus [2]): 16 µg/mL | MIC (Aspergillus flavus [3]): 4 µg/mL | MIC (Candida albicans [4]): 16 µg/mL (≈ 38.2 µM) | MIC (Candida albicans [5]): 8 µg/mL | fractional inhibitory concentration index (FICI) (Cryptococcus neoformans [6]): 1.5 | MIC (Candida albicans [7]): 64 µg/mL (≈ 153 µM) | fractional inhibitory concentration index (FICI) (Aspergillus fumigatus [8]): 1.5 | MIC (Cryptococcus neoformans [9]): 16 µg/mL | fractional inhibitory concentration index (FICI) (Aspergillus flavus [10]): 2 | MIC (Aspergillus flavus [11]): 4 µg/mL | MIC (Aspergillus flavus [12]): 64 µg/mL | MIC (Aspergillus fumigatus [13]): 32 µg/mL (≈ 76.5 µM) | MIC (Candida albicans [14]): 4 µg/mL | IC50 [15]: 201 µM | inhibition (Candida tropicalis): 71.4% | MIC (Cryptococcus neoformans [16]): 8 µg/mL | fractional inhibitory concentration index (FICI) (Cryptococcus neoformans [17]): 1.5 | MIC (Aspergillus flavus [18]): 4 µg/mL | MIC (Aspergillus fumigatus [19]): 4 µg/mL | MIC (Cryptococcus neoformans [20]): 32 µg/mL (≈ 76.5 µM) | fractional inhibitory concentration index (FICI) (Candida albicans [21]): 1 | fractional inhibitory concentration index (FICI) (Aspergillus flavus [22]): 2 | MIC (Cryptococcus neoformans [23]): 64 µg/mL (≈ 153 µM) | MIC (Candida albicans [24]): 64 µg/mL (≈ 153 µM) | MIC (Aspergillus fumigatus [25]): 16 µg/mL (≈ 38.2 µM) | fractional inhibitory concentration index (FICI) (Aspergillus fumigatus [26]): 1.5 | MIC (Aspergillus flavus [27]): 8 µg/mL (≈ 19.1 µM) | MIC (Aspergillus fumigatus [28]): 8 µg/mL | MIC (Candida albicans [29]): 8 µg/mL | MIC (Candida albicans [30]): 128 µg/mL | MIC (Aspergillus flavus [31]): 32 µg/mL (≈ 76.5 µM) | MIC (Cryptococcus neoformans [32]): 256 µg/mL | MIC (Aspergillus fumigatus [33]): 128 µg/mL | fractional inhibitory concentration index (FICI) (Candida albicans [34]): 1
